Key:
[1] = target: T1, DddK Pu (dimethylsulfoniopropionate (DMSP) lyase from Pelagibacter ubique HTCC1062) (Candidatus Pelagibacter communis, UniProt Q4FNM4); assay: end-point assay of acrylate consumption (aza-Michael addition); assay type: biochemical; conditions: co-substrate sodium acrylate 100 mM; pyrrolidine 100 mM; 50 mM triethanolamine pH 8.0, 25 °C; promiscuous activity
T1 construct: gene SAR11_0394; His-tagged wild type, tag kept, recombinant in E. coli, purified; metals as isolated mainly Zn, Fe, Ni
T1 sequence (Q4FNM4 1-130): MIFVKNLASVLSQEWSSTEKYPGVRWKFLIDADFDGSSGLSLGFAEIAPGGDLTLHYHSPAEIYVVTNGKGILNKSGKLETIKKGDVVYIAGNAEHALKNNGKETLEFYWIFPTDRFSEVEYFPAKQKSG

[2] = target: T1, DddK Pu (dimethylsulfoniopropionate (DMSP) lyase from Pelagibacter ubique HTCC1062); assay: HPLC end-point assay of acrylate formation; assay type: biochemical; conditions: 50 mM triethanolamine pH 8.0, 25 °C; enzyme as isolated (mainly Zn, Fe, Ni)

| SMILES | end-point assay of acrylate consumption (aza-Michael addition) [1] | HPLC end-point assay of acrylate formation [2] |
| --- | --- | --- |
| C1CCNC1 [6c, pyrrolidine] | Pyrrolidine (6c) was by far the most active secondary amine |  |
| C[S+](C)CCC(=O)[O-] [compound 1, DMSP] |  | The specific activity of DddK Pu was determined by the endpoint method |

— publication PMC12582016, “Cupin‐Type Dimethylsulfoniopropionate Lyase from Pelagibacter ubique (DddK Pu ) Catalyzes Aza‐Michael Addition of Primary and Secondary Amines to Acrylic Acid” (Angewandte Chemie (International Ed. in English), 2025)
